# Data reported in patent US20240025862A1, “SUBSTITUTED N-PHENYLURACILS AND SALTS THEREOF, AND USE THEREOF AS HERBICIDAL ACTIVE SUBSTANCES” (Bayer Aktiengesellschaft, priority 2020, published 2024).
# Experiments:
# Assay type in all cases: in vivo
# [1] = test system: Hordeum murinum (HORMU); experiment: Post-emergence herbicidal action, greenhouse pot test; details: rated visually after about 3 weeks vs untreated controls, 100% = plants have died
# Outline: (§1)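 Greenhouse-grown weeds in sandy loam were sprayed post-emergence at the one-leaf stage, 2–3 weeks after sowing. Compounds were formulated as WP or EC in water with 0.5% additive at 600 l/ha, at rates of 20 g/ha or less. Visual rating after about 3 weeks used a scale from 0% (like untreated control) to 100% (plants dead).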
# [2] = test system: Pharbitis purpurea (PHBPU); experiment: as above
# Outline: as §1
# [3] = test system: Amaranthus retroflexus (AMARE); experiment: as above
# Outline: as §1
# [4] = test system: Abutilon theophrasti (ABUTH); experiment: as above
# Outline: as §1
# [5] = test system: Avena fatua (AVEFA); experiment: as above
# Outline: as §1
# [6] = test system: Veronica persica (VERPE); experiment: as above
# Outline: as §1
# [7] = test system: Viola tricolor (VIOTR); experiment: as above
# Outline: as §1
# [8] = test system: Polygonum convolvulus (POLCO); experiment: as above
# Outline: as §1
# [9] = test system: Stellaria media (STEME); experiment: as above
# Outline: as §1
# [10] = test system: Triticum aestivum (TRZAS); experiment: Post-emergence crop plant compatibility, greenhouse pot test; details: vs untreated controls
# Outline: (§2)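 Greenhouse-grown crop plants sprayed post-emergence at the one-leaf stage with WP or EC formulations plus 0.5% additive, at 600 l/ha water. Damage rated visually after about 3 weeks versus untreated controls (0% = like control, 100% = dead); suffixes a/b/c denote different dosages.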
# [11] = test system: Zea mays (ZEAMX); experiment: as above; details: 1.25 g/ha, vs untreated controls
# Outline: as §2
# [12] = test system: Brassica napus (BRSNW); experiment: as above; details: 1.25 g/ha, vs untreated controls
# Outline: as §2
# [13] = test system: Echinochloa crus-galli (ECHCG); experiment: Post-emergence herbicidal action, greenhouse pot test (also comparative test C)
# Outline: (§3)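 Greenhouse pot plants in sandy loam were sprayed post-emergence at the one-leaf stage (2–3 weeks after sowing) with WP or EC formulations plus 0.5% additive at 600 l/ha water. Activity was rated visually after about 3 weeks versus untreated controls (100% = dead, 0% = like control); rates were 20 g/ha or less, and 5 g/ha or less in the comparative test.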
# [14] = test system: Setaria viridis (SETVI); experiment: as above
# Outline: as §3
# [15] = test system: Alopecurus myosuroides (ALOMY); experiment: as above
# Outline: as §3
# [16] = test system: Matricaria inodora (MATIN); experiment: as above
# Outline: as §3
# [17] = test system: Oryza sativa (ORYSA); experiment: Post-emergence crop plant compatibility, greenhouse pot test (also comparative test C); details: vs untreated controls
# Outline: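 Rice and other crops sprayed post-emergence at one-leaf stage (2–3 weeks after sowing) with WP or EC formulations plus 0.5% additive at 600 l/ha water. Visual rating about 3 weeks later versus untreated controls (100% = dead, 0% = like control); suffixes a–c denote different doses.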
# [18] = test system: Glycine max (GLXMA); experiment: Post-emergence crop plant compatibility, greenhouse pot test
# Outline: as §2
# [19] = 1.25 g/ha, rated visually after about 3 weeks vs untreated controls, 100% = plants have died
# [20] = 5 g/ha, rated visually after about 3 weeks vs untreated controls, 100% = plants have died
# [21] = 20 g/ha, rated visually after about 3 weeks vs untreated controls, 100% = plants have died
# [22] = Ipomoea purpurea, 504 h, read-out: Post-emergence action against PHBPU in %
# [23] = Veronica persica, 504 h, read-out: Post-emergence action against VERPE
# [24] = Viola tricolor, 504 h, read-out: Post-emergence action against VIOTR
# [25] = Fallopia convolvulus, 504 h, read-out: Post-emergence action against POLCO in %
# [26] = Setaria viridis, 504 h, read-out: Post-emergence action against SETVI in %
# [27] = Tripleurospermum inodorum, 504 h, read-out: Post-emergence action against MATIN in %
smiles,measurement,setting,value
Cn1c(C(F)(F)F)cc(=O)n(-c2cc(Sc3ccccc3OCC(=O)OCC3CCCO3)c(Cl)cc2F)c1=O (racemic) [I.1-71],Post-emergence action at 5 g/ha against HORMU in %,[1]; 5 g/ha,80%
same,Post-emergence action at 20 g/ha against HORMU in %,[1],90%
same,Post-emergence action against PHBPU in %,[2]; dosage 1.25 g/ha,100%
same,Post-emergence action against PHBPU in %,[2]; dosage 5 g/ha,100%
same,Post-emergence action against PHBPU in %,[2]; dosage 20 g/ha,100%
same,Post-emergence action at 1.25 g/ha against AMARE in %,[3]; [19],100%
same,Post-emergence action at 5 g/ha against AMARE in %,[3]; [20],100%
same,Post-emergence action at 20 g/ha against AMARE in %,[3]; [21],100%
same,Post-emergence action at 1.25 g/ha against ABUTH in %,[4]; [19],100%
same,Post-emergence action at 5 g/ha against ABUTH in %,[4]; [20],100%
same,Post-emergence action at 20 g/ha against ABUTH in %,[4]; [21],100%
same,Post-emergence action at 20 g/ha against AVEFA in %,[5]; [21],80%
same,Post-emergence action against VERPE,[6]; 1.25 g/ha,100%
same,Post-emergence action against VERPE,[6]; 5 g/ha,100%
same,Post-emergence action against VERPE,[6]; 20 g/ha,100%
same,Post-emergence action against VIOTR,[7]; 1.25 g/ha,100%
same,Post-emergence action against VIOTR,[7]; 5 g/ha,100%
same,Post-emergence action against VIOTR,[7]; 20 g/ha,100%
same,Post-emergence action against POLCO in %,[8]; dosage 1.25 g/ha,100%
same,Post-emergence action against POLCO in %,[8]; dosage 5 g/ha,100%
same,Post-emergence action against POLCO in %,[8]; dosage 20 g/ha,100%
same,Post-emergence action against STEME,[9]; 1.25 g/ha,90%
same,Post-emergence action against STEME,[9]; 5 g/ha,100%
same,Post-emergence action against STEME,[9]; 20 g/ha,100%
same,Post-emergence action against TRZAS (crop plant compatibility),[10]; 1.25 g/ha,10%
same,Post-emergence action against TRZAS (crop plant compatibility),[10]; 5 g/ha,20%
same,Post-emergence action against ZEAMX (crop plant compatibility),[11],20%
same,Post-emergence action against BRSNW (crop plant compatibility),[12],20%
same,Post-emergence action at 1.25 g/ha against ECHCG in %,[13]; [19],100%
same,Post-emergence action against ECHCG in %,[13]; dosage 20 g/ha,100%
same,Post-emergence action against SETVI,[14]; 20 g/ha,100%
same,Post-emergence action against SETVI in %,[14]; dosage 1.25 g/ha,100%
same,Post-emergence action against SETVI in %,[14]; dosage 5 g/ha,100%
same,Post-emergence action at 5 g/ha against ALOMY in %,[15]; [20],80%
same,Post-emergence action at 20 g/ha against ALOMY in %,[15]; [21],90%
same,Post-emergence action against MATIN in %,[16]; dosage 1.25 g/ha,80%
same,Post-emergence action against MATIN in %,[16]; dosage 5 g/ha,90%
same,Post-emergence action against MATIN in %,[16]; dosage 20 g/ha,100%
"COCCOC(=O)COc1ccccc1Sc1cc(-n2c(=O)cc(C(F)(F)F)n(C)c2=O)c(F)cc1Cl [I.1-1, 2-Methoxyethyl [2-({2-chloro-4-fluoro-5-[3-methyl-2,6-dioxo-4-(trifluoromethyl)-3,6-dihydropyrimidin-1(2H)-yl]phenyl}sulfanyl)phenoxy]acetate]",Post-emergence action at 20 g/ha against HORMU in %,[1],100%
same,pest or weed control at 1.25 g/ha,[2]; [22],100%
same,pest or weed control at 5 g/ha,[2]; [22],100%
same,pest or weed control at 20 g/ha,[2]; [22],100%
same,pest or weed control at 1.25 g/ha,"[3]; Amaranthus retroflexus, 504 h, read-out: Post-emergence action at 1.25 g/ha against AMARE in %",90%
same,pest or weed control at 5 g/ha,"[3]; Amaranthus retroflexus, 504 h, read-out: Post-emergence action at 5 g/ha against AMARE in %",100%
same,pest or weed control at 20 g/ha,"[3]; Amaranthus retroflexus, 504 h, read-out: Post-emergence action at 20 g/ha against AMARE in %",100%
same,pest or weed control at 1.25 g/ha,"[4]; Abutilon theophrasti, 504 h, read-out: Post-emergence action at 1.25 g/ha against ABUTH in %",100%
same,pest or weed control at 5 g/ha,"[4]; Abutilon theophrasti, 504 h, read-out: Post-emergence action at 5 g/ha against ABUTH in %",100%
same,pest or weed control at 20 g/ha,"[4]; Abutilon theophrasti, 504 h, read-out: Post-emergence action at 20 g/ha against ABUTH in %",100%
same,pest or weed control at 20 g/ha,"[5]; Avena fatua, 504 h, read-out: Post-emergence action at 20 g/ha against AVEFA in %",80%
same,pest or weed control at 1.25 g/ha,[6]; [23],80%
same,pest or weed control at 5 g/ha,[6]; [23],100%
same,pest or weed control at 20 g/ha,[6]; [23],100%
same,pest or weed control at 1.25 g/ha,[7]; [24],100%
same,pest or weed control at 5 g/ha,[7]; [24],100%
same,pest or weed control at 20 g/ha,[7]; [24],100%
same,pest or weed control at 5 g/ha,[8]; [25],100%
same,pest or weed control at 20 g/ha,[8]; [25],100%
same,Post-emergence action against STEME,[9]; 1.25 g/ha,80%
same,Post-emergence action against STEME,[9]; 5 g/ha,100%
same,Post-emergence action against STEME,[9]; 20 g/ha,100%
same,Post-emergence action against ORYSA (crop plant compatibility),[17]; 1.25 g/ha,10%
same,Post-emergence action against ORYSA (crop plant compatibility),[17]; 5 g/ha,10%
same,Post-emergence action against TRZAS (crop plant compatibility),[10]; 1.25 g/ha,20%
same,Post-emergence action against GLXMA in %,[18]; 1.25 g/ha,0%
same,Post-emergence action against GLXMA in %,[18]; 5 g/ha,20%
same,Post-emergence action against ZEAMX (crop plant compatibility),[11],20%
same,pest or weed control at 20 g/ha,"[13]; Echinochloa crus-galli, 504 h, read-out: Post-emergence action against ECHCG in %",80%
same,pest or weed control at 20 g/ha,"[14]; Setaria viridis, 504 h, read-out: Post-emergence action against SETVI",100%
same,pest or weed control at 1.25 g/ha,[14]; [26],100%
same,pest or weed control at 5 g/ha,[14]; [26],100%
same,pest or weed control at 20 g/ha,"[15]; Alopecurus myosuroides, 504 h, read-out: Post-emergence action at 20 g/ha against ALOMY in %",80%
same,pest or weed control at 5 g/ha,[16]; [27],100%
same,pest or weed control at 20 g/ha,[16]; [27],100%
